Results as given in patent US20240018123A1, “COMPOUND FOR INHIBITING OR DISINTEGRATING ANDROGEN RECEPTOR, AND PHARMACEUTICAL USE THEREOF” (KOREA RESEARCH INSTITUTE OF CHEMICAL TECHNOLOGY, priority 2020, published 2024).
Read-outs that look alike come from different tables or passages of the source.

Tests used:
Androgen receptor (AR) = target: T1, Androgen receptor (AR) (Homo sapiens, UniProt P10275, T878A); assay: Assessment of AR proteolytic activity (Western blotting of LNCap cell lysates); assay type: cell-based; conditions: 24 hours of treatment, Western blotting quantified with Image J; for remaining activity at 1 µM: read-out: Degradation (1 μM treated in LNCaP, % AR remaining)
T1 construct: 5.5×10^5 LNCap cells were injected into each well of a 6-well plate; endogenous in cells; host or cells: LNCaP
T1 sequence (P10275 1-920 T878A): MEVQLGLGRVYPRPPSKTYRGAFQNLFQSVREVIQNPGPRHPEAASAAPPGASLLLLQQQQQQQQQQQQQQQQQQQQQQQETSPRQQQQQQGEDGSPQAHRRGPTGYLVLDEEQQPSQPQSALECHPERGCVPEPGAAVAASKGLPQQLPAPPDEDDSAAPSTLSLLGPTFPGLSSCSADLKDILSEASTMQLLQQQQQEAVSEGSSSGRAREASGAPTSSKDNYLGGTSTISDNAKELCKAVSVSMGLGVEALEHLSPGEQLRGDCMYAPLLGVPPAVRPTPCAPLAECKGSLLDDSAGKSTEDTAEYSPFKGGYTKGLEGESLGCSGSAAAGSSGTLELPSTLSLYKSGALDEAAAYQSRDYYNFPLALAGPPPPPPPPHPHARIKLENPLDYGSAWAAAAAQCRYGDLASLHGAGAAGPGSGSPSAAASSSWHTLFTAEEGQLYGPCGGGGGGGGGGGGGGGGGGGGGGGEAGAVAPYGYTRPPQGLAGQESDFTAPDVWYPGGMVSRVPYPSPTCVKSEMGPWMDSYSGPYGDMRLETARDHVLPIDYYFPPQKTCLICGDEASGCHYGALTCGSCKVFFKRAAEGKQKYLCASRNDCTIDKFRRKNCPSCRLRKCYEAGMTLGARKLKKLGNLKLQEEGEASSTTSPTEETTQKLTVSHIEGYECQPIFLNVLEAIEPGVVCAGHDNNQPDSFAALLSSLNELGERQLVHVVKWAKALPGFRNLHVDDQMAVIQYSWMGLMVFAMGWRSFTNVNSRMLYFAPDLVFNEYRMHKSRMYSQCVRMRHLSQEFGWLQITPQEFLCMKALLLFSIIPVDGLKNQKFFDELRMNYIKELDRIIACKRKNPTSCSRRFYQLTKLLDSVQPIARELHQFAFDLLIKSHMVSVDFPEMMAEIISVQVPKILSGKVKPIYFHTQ
Procedure, shortened: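 LNCap cells seeded at 5.5×10^5 per well and treated with compound for 24 hours. Lysates prepared in RIPA buffer (pH 7.5, with protease inhibitors). AR protein levels assessed by Western blot with densitometric quantification.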

LNCaP cells = assay: Cytotoxicity assessment (Cell-titer-glo cell viability), LNCaP
Description: In order to evaluate the androgen receptor (AR) cytotoxicity of the compounds according to the present invention, the following experiment was conducted. Specifically, 1.5×10^3 (LNCaP) or 4×10^3 (VCaP, 22RV1), respectively, of LNCaP, VCaP, and 22RV1 cells were injected into each well of a 96-well plate. The next day, each well was treated with the compound at a final concentration of 3 nM, 10 nM, 30 nM, 100 nM, 300 nM, 1 μM, 3 μM, and 10 μM. […] After 6 days of treatment, Cell-titer-glo (promega) was treated and reacted for 10 minutes, and cell viability was measured with a multimode plate reader (PerkinElmer, Inc.), and the change was quantified compared to when DMSO was treated.

VCaP cells = assay: Cytotoxicity assessment (Cell-titer-glo cell viability), VCaP
[1] = read-out: LNCAP (CC50), LNCaP cells, 6 days of treatment, Cell-titer-glo, vs DMSO
[2] = read-out: VCaP (CC50), VCaP cells, 6 days of treatment, Cell-titer-glo, vs DMSO
[3] = Homo sapiens, LNCaP, 144 h, read-out: LNCAP (CC50, μM)
[4] = Homo sapiens, VCaP, 144 h, read-out: VCaP (CC50, μM)

remaining activity at 1 µM (Androgen receptor (AR)) [%]	Compound	Degradation (1 μM treated in LNCaP, % AR remaining) (Androgen receptor (AR)) [%]	CC50 (LNCaP cells; [1]) [µM]	CC50 (VCaP cells; [2]) [µM]	CC50 (LNCaP cells; [3]) [µM]	CC50 (VCaP cells; [4]) [µM]
	CC1(C)[C@H](NC(=O)c2ccc(N3CCN(CC4CCN(C(=O)C5CCN(c6ccc7nnn(C8CCC(=O)NC8=O)c(=O)c7c6)CC5)CC4)CC3)cc2)C(C)(C)[C@H]1Oc1ccc(C#N)c(Cl)c1 (stereo partly drawn) [Example 10, N-((1r,3r)-3-(3-chloro-4-cyanophenoxy)-2,2,4,4-tetramethylcyclobutyl)-4-(4-((1-(1-(3-(2,6-dioxopiperidin-3-yl)-4-oxo-3,4-dihydrobenzo[d][1,2,3]triazin-6-yl)piperidine-4-carbonyl)piperidin-4-yl)methyl)piperazin-1-yl)benzamide]	12.5	0.19	0.257		
	N-((1r,3r)-3-(3-chloro-4-cyanophenoxy)-2,2,4,4-tetramethylcyclobutyl)-4-(4-(2-((1-(1-(3-(2,6-dioxopiperidin-3-yl)-4-oxo-3,4-dihydrobenzo[d][1,2,3]triazin-6-yl)azetidine-3-carbonyl)piperidin-4-yl)oxy)ethyl)piperazin-1-yl)benzamide [Example 33]	14	0.762	0.057		
5	CC1(C)[C@H](NC(=O)c2ccc(N3CCN(CCOC4CCN(C(=O)CNc5ccc6nnn(C7CCC(=O)NC7=O)c(=O)c6c5)CC4)CC3)cc2)C(C)(C)[C@H]1Oc1ccc(C#N)c(Cl)c1 (stereo partly drawn) [Example 31, N-((1r,3r)-3-(3-chloro-4-cyanophenoxy)-2,2,4,4-tetramethylcyclobutyl)-4-(4-(2-((1-((3-(2,6-dioxopiperidin-3-yl)-4-oxo-3,4-dihydrobenzo[d][1,2,3]triazin-6-yl)glycyl)piperidin-4-yl)oxy)ethyl)piperazin-1-yl)benzamide]				0.852	0.0571
	CC1(C)[C@H](NC(=O)c2ccc(N3CCN(CCC4CCN(C(=O)C5CCN(c6ccc7nnn(C8CCC(=O)NC8=O)c(=O)c7c6)CC5)CC4)CC3)cc2)C(C)(C)[C@H]1Oc1ccc(C#N)c(Cl)c1 (stereo partly drawn) [Example 26, N-((1r,3r)-3-(3-chloro-4-cyanophenoxy)-2,2,4,4-tetramethylcyclobutyl)-4-(4-(2-(1-(1-(3-(2,6-dioxopiperidin-3-yl)-4-oxo-3,4-dihydrobenzo[d][1,2,3]triazin-6-yl)piperidine-4-carbonyl)piperidin-4-yl)ethyl)piperazin-1-yl)benzamide]	7	0.361	0.0516		
	CC1(C)[C@H](NC(=O)c2ccc(N3CCN(C4CC5(CCN(C(=O)CNc6ccc7nnn(C8CCC(=O)NC8=O)c(=O)c7c6)CC5)C4)CC3)cc2)C(C)(C)[C@H]1Oc1ccc(C#N)c(Cl)c1 (stereo partly drawn) [Example 19, N-((1r,3r)-3-(3-chloro-4-cyanophenoxy)-2,2,4,4-tetramethylcyclobutyl)-4-(4-(7-((3-(2,6-dioxopiperidin-3-yl)-4-oxo-3,4-dihydrobenzo[d][1,2,3]triazin-6-yl)glycyl)-7-azaspiro[3.5]nonan-2-yl)piperazin-1-yl)benzamide]	23	0.208	0.0763		
	CC1(C)[C@H](NC(=O)c2ccc(N3CCN(C4CC5(CCN(C(=O)C6CCN(c7ccc8nnn(C9CCC(=O)NC9=O)c(=O)c8c7)CC6)CC5)C4)CC3)cc2)C(C)(C)[C@H]1Oc1ccc(C#N)c(Cl)c1 (stereo partly drawn) [Example 20, N-((1r,3r)-3-(3-chloro-4-cyanophenoxy)-2,2,4,4-tetramethylcyclobutyl)-4-(4-(7-(1-(3-(2,6-dioxopiperidin-3-yl)-4-oxo-3,4-dihydrobenzo[d][1,2,3]triazin-6-yl)piperidine-4-carbonyl)-7-azaspiro[3.5]nonan-2-yl)piperazin-1-yl)benzamide]	26	0.178	0.0542		
	N-((1r,3r)-3-(3-chloro-4-cyanophenoxy)-2,2,4,4-tetramethylcyclobutyl)-4-(4-(2-((1-(1-(3-(2,6-dioxopiperidin-3-yl)-4-oxo-3,4-dihydrobenzo[d][1,2,3]triazin-6-yl)piperidine-4-carbonyl piperidin-4-yl)oxy)ethyl)piperazin-1-yl)benzamide [Example 30]	4	0.847	0.08		
11	CC1(C)[C@H](NC(=O)c2ccc(N3CCN(CCOC4CCN(c5ccc6nnn(C7CCC(=O)NC7=O)c(=O)c6c5)CC4)CC3)cc2)C(C)(C)[C@H]1Oc1ccc(C#N)c(Cl)c1 (stereo partly drawn) [Example 34, N-((1r,3r)-3-(3-chloro-4-cyanophenoxy)-2,2,4,4-tetramethylcyclobutyl)-4-(4-(2-((1-(3-(2,6-dioxopiperidin-3-yl)-4-oxo-3,4-dihydrobenzo[d][1,2,3]triazin-6-yl)piperidin-4-yl)oxy)ethyl)piperazin-1-yl)benzamide]				0.523	0.0702
	CC1(C)C(NC(=O)c2ccc(-n3cc(C4CCN(C(=O)C5CCN(c6ccc7nnn(C8CCC(=O)NC8=O)c(=O)c7c6)CC5)CC4)nn3)cc2)C(C)(C)C1Oc1ccc(C#N)c(Cl)c1 (stereo not drawn) [Example 102, N-((1r,3r)-3-(3-chloro-4-cyanophenoxy)-2,2,4,4-tetramethylcyclobutyl)-4-(4-(1-(1-(3-(2,6-dioxopiperidin-3-yl)-4-oxo-3,4-dihydrobenzo[d][1,2,3]triazin-6-yl)piperidine-4-carbonyl)piperidin-4-yl)-1H-1,2,3-triazol-1-yl)benzamide]		0.0158	0.00588		
	CC1(C)C(NC(=O)c2ccc(-n3cc(C4CCN(C(=O)CNc5ccc6nnn(C7CCC(=O)NC7=O)c(=O)c6c5)CC4)nn3)cc2)C(C)(C)C1Oc1ccc(C#N)c(Cl)c1 (stereo not drawn) [Example 107, N-((1r,3r)-3-(3-chloro-4-cyanophenoxy)-2,2,4,4-tetramethylcyclobutyl)-4-(4-(1-((3-(2,6-dioxopiperidin-3-yl)-4-oxo-3,4-dihydrobenzo[d][1,2,3]triazin-6-yl)glycyl)piperidin-4-yl)-1H-1,2,3-triazol-1-yl)benzamide]		0.0899	0.00359		
2	CC1(C)[C@H](NC(=O)c2ccc(N3CCN(CCOC4CCN(C(=O)COc5ccc6nnn(C7CCC(=O)NC7=O)c(=O)c6c5)CC4)CC3)cc2)C(C)(C)[C@H]1Oc1ccc(C#N)c(Cl)c1 (stereo partly drawn) [Example 32, N-((1r,3r)-3-(3-chloro-4-cyanophenoxy)-2,2,4,4-tetramethylcyclobutyl)-4-(4-(2-((1-(2-((3-(2,6-dioxopiperidin-3-yl)-4-oxo-3,4-dihydrobenzo[d][1,2,3]triazin-6-yl)oxy)acetyl)piperidin-4-yl)oxy)ethyl)piperazin-1-yl)benzamide]				1.3	0.141
	CC1(C)[C@H](NC(=O)c2ccc(N3CCN(C4CC5(CCN(c6cccc7nnn(C8CCC(=O)NC8=O)c(=O)c67)CC5)C4)CC3)cc2)C(C)(C)[C@H]1Oc1ccc(C#N)c(Cl)c1 (stereo partly drawn) [Example 22, N-((1r,3r)-3-(3-chloro-4-cyanophenoxy)-2,2,4,4-tetramethylcyclobutyl)-4-(4-(7-(3-(2,6-dioxopiperidin-3-yl)-4-oxo-3,4-dihydrobenzo[d][1,2,3]triazin-5-yl)-7-azaspiro[3.5]nonan-2-yl)piperazin-1-yl)benzamide]	74	13.4	0.135		
	CC1(C)C(NC(=O)c2ccc(-n3cc(CC4CCN(C(=O)CNc5ccc6nnn(C7CCC(=O)NC7=O)c(=O)c6c5)CC4)nn3)cc2)C(C)(C)C1Oc1ccc(C#N)c(Cl)c1 (stereo not drawn) [Example 106, N-((1r,3r)-3-(3-chloro-4-cyanophenoxy)-2,2,4,4-tetramethylcyclobutyl)-4-(4-((1-((3-(2,6-dioxopiperidin-3-yl)-4-oxo-3,4-dihydrobenzo[d][1,2,3]triazin-6-yl)glycyl)piperidin-4-yl)methyl)-1H-1,2,3-triazol-1-yl)benzamide]		0.0691	0.0113		
